Target: human mGluR2 receptor (Homo sapiens (Human), UniProt Q14416)
Experiment: [35S]GTPγS binding assay (PAM assay)
Assay type: biochemical
Conditions: membranes from CHO cells transfected with human mGluR2, in presence of glutamate at EC25 concentration, averages of duplicate values of 11-concentration response curves
Protocol: The [^35S]GTPγS binding assay is a functional membrane-based assay used to study G-protein coupled receptor (GPCR) function whereby incorporation of a non-hydrolysable form of GTP, [^35S]GTPγS (guanosine 5′-triphosphate, labelled with […] ^35S), is measured. The G-protein […] subunit catalyzes the exchange of guanosine 5′-diphosphate (GDP) by guanosine triphosphate (GTP) and on activation of the GPCR by an agonist, [^35S]GTPγS, becomes incorporated and cannot be cleaved to continue the exchange cycle (Harper (1998) Current Protocols in Pharmacology 2.6.1-10, John Wiley & Sons, Inc.). […] Here we describe the use of the [^35S]GTPγS binding assay using membranes from cells transfected with the human mGluR2 receptor and adapted from Schaffhauser et al ((2003) Molecular Pharmacology 4:798-810) for the detection of the positive allosteric modulation (PAM) properties of the compounds of this invention.
CHO-cells were cultured to pre-confluence and stimulated with 5 mM butyrate for 24 hours, prior to washing in PBS, and then collected by scraping in homogenisation buffer (50 mM Tris-HCl buffer, pH 7.4, 4° C.). Cell lysates were homogenized briefly (15 s) using an ultra-turrax homogenizer. The homogenate was centrifuged at 23 500×g for 10 minutes and the supernatant discarded. The pellet was resuspended in 5 mM Tris-HCl, pH 7.4 and centrifuged again (30 000×g, 20 min, 4° C.). The final pellet was resuspended in 50 mM HEPES, pH 7.4 and stored at −80° C. in appropriate aliquots before use. Protein concentration was determined by the Bradford method (Bio-Rad, USA) with bovine serum albumin as standard.
Measurement of mGluR2 positive allosteric modulatory activity of test compounds in membranes containing human mGluR2 was performed using frozen membranes that were thawed and briefly homogenized prior to pre-incubation in 96-well microplates (15 μg/assay well, 30 minutes, 30° C.) in assay buffer (50 mM HEPES pH 7.4, 100 mM NaCl, 3 mM MgCl2, 50 μM GDP, 10 μg/ml saponin,) with increasing concentrations of positive allosteric modulator (from 0.3 nM to 50 μM) and either a minimal pre-determined concentration of glutamate (PAM assay), or no added glutamate. For the PAM assay, membranes were pre-incubated with glutamate at EC25 concentration, i.e. a concentration that gives 25% of the maximal response glutamate, and is in accordance to published data (Pin et al. (1999) Eur. J. Pharmacol. 375:277-294). After addition of [^35S]GTPγS (0.1 nM, f.c.) to achieve a total reaction volume of 200 μl, microplates were shaken briefly and further incubated to allow [^35S]GTPγS incorporation on activation (30 minutes, 30° C.). The reaction was stopped by rapid vacuum filtration over glass-fibre filter plates (Unifilter 96-well GF/B filter plates, Perkin-Elmer, Downers Grove, USA) microplate using a 96-well plate cell harvester (Filtermate, Perkin-Elmer, USA), and then by washing three times with 300 μl of ice-cold wash buffer (Na2PO4.2H2O 10 mM, NaH2PO4.H2O 10 mM, pH=7.4). Filters were then air-dried, and 40 μl of liquid scintillation cocktail (Microscint-O) was added to each well, and membrane-bound [^35S]GTPγS was measured in a 96-well scintillation plate reader (Top-Count, Perkin-Elmer, USA). Non-specific [^35S]GTPγS binding is determined in the presence of cold 10 μM GTP.

Chain of human mGluR2 receptor (Q14416 19-872): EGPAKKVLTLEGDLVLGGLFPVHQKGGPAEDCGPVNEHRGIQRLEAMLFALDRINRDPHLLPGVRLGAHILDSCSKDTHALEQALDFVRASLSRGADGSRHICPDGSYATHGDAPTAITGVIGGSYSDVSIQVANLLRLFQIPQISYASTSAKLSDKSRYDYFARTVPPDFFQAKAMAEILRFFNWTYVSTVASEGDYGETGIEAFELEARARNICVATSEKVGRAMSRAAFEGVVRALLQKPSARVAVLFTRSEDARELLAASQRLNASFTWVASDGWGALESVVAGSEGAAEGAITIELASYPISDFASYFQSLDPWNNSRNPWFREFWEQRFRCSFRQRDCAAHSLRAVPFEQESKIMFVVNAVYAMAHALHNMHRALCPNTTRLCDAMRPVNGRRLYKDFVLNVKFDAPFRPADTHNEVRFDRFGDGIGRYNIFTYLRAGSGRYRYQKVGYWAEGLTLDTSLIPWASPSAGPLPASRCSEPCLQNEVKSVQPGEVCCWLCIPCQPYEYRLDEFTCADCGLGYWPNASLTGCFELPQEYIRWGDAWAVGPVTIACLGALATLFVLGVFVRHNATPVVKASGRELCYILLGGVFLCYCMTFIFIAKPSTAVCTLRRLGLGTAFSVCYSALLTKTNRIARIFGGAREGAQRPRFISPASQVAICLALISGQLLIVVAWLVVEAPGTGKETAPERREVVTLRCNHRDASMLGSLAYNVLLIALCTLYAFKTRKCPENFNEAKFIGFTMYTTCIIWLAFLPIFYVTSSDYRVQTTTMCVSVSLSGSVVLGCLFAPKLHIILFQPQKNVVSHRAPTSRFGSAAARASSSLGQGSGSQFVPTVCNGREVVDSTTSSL

Row | Structure (SMILES) | EC50 (read-out: GTPgS - hR2 PAM pEC50 (converted)) [nM] | GTPgS - hR2 PAM pEC50
1 | CCCCn1ccc(N2CCC(F)(c3ccccc3)CC2)c(Cl)c1=O [Compound 7] | 240 | –
2 | O=c1c(C(F)(F)F)c(N2CCC(c3ccccc3)CC2)ccn1CC1CC1 [Compound 4, 1′-Cyclopropylmethyl-4-phenyl-3′-trifluoromethyl-3,4,5,6-tetrahydro-2H,1′H-[1,4′]bipyridinyl-2′-one] | – | 6.45
3 | O=c1c(Cl)c(N2CCC(c3ccccc3Cl)CC2)ccn1CC1CC1 [Compound 15] | – | 7.00
4 | O=c1c(Br)c(N2CCC(c3ccccc3)CC2)ccn1CC1CC1 [Compound 3, 3′-Bromo-1′-cyclopropylmethyl-4-phenyl-3,4,5,6-tetrahydro-2H,1′H-[1,4′]bipyridinyl-2′-one] | – | 6.88
5 | O=c1c(Cl)c(N2CCC(c3ccccc3)CC2)ccn1Cc1ccc(OC(F)(F)F)cc1 [Compound 5, 3′-Chloro-4-phenyl-1′-(4-trifluoromethoxybenzyl)-3,4,5,6-tetrahydro-2H,1′H-[1,4′]bipyridinyl-2′-one] | – | 6.90
6 | CCCCCn1ccc(N2CCC(c3ccccc3)CC2)c(Cl)c1=O [Compound 11] | – | 7.11
7 | O=c1c(Cl)c(N2CCC(F)(c3ccccc3)CC2)ccn1CC1CC1 [Compound 17] | – | 6.57
8 | O=c1c(Cl)c(N2CCC(c3ccc(N4CCOCC4)cc3)CC2)ccn1CC1CC1 [Compound 13] | – | 6.64
9 | O=c1c(Cl)c(N2CCC(c3ccc(F)cc3F)CC2)ccn1CC1CC1 [Compound 14] | – | 6.92
10 | O=c1c(C2CC2)c(N2CCC(c3ccccc3)CC2)ccn1CC1CC1 [Compound 8, 3′-Cyclopropyl-1′-cyclopropylmethyl-4-phenyl-3,4,5,6-tetrahydro-2H,1′H-[1,4′]bipyridinyl-2′-one] | – | 6.04
11 | O=c1c(Cl)c(N2CCC(c3ccccc3)CC2)ccn1CCC1CC1 [Compound 10] | – | 6.88
12 | N#CC1(c2ccccc2)CCN(c2ccn(CC3CC3)c(=O)c2Cl)CC1 [Compound 6, 3′-Chloro-1′-cyclopropylmethyl-2′-oxo-4-phenyl-3,4,5,6,1′,2′-hexahydro-2H-[1,4′]bipyridinyl-4-carbonitrile] | – | 6.34
13 | O=c1c(Cl)c(N2CCC(c3ccccc3)CC2)ccn1CC1CC1 [Compound 1, 3′-Chloro-1′-cyclopropylmethyl-4-phenyl-3,4,5,6-tetrahydro-2H,1′H-[1,4′]bipyridinyl-2′-one] | – | 6.53
14 | O=c1c(Cl)c(N2CCC(c3cccc(C(F)(F)F)c3)CC2)ccn1CC1CC1 [Compound 16] | – | 7.12
15 | O=c1c(Cl)c(N2CCC(c3ccccc3F)CC2)ccn1CC1CC1 [Compound 12] | – | 7.03
16 | CC(C)(O)c1ccc(C2CCN(c3ccn(CC4CC4)c(=O)c3Cl)CC2)cc1 [Compound 9, 3′-Chloro-1′-cyclopropylmethyl-4-[4-(1-hydroxy-1-methyl-ethyl)-phenyl]-3,4,5,6-tetrahydro-2H,1′H-[1,4′]bipyridinyl-2′-one] | – | 6.57

Now from value to compound:

Row | EC50 (read-out: GTPgS - hR2 PAM pEC50 (converted)) [nM] | GTPgS - hR2 PAM pEC50 | Structure (SMILES)
17 | – | 6.05 | CCCCn1ccc(N2CCC(CO)(c3ccccc3)CC2)c(Cl)c1=O [Compound 22, 1′-Butyl-3′-chloro-4-hydroxymethyl-4-phenyl-3,4,5,6-tetrahydro-2H,1′H-[1,4′]bipyridinyl-2′-one]
18 | – | 6.46 | CCCCn1ccc(N2CCC(c3ccc(C(C)(C)O)cc3)CC2)c(Cl)c1=O [Compound 27]
19 | – | 7.06 | CCCCn1ccc(N2CCC(c3ccccc3C(C)(C)O)CC2)c(Cl)c1=O [Compound 28, 1′-Butyl-3′-chloro-4-[2-(1-hydroxy-1-methyl-ethyl)-phenyl]-3,4,5,6-tetrahydro-2H,1′H-[1,4′]bipyridinyl-2′-one]
20 | – | 6.88 | CCCCn1ccc(N2CCC(c3ccc(C(C)(C)O)cc3F)CC2)c(Cl)c1=O [Compound 29, 1′-Butyl-3′-chloro-4-[2-fluoro-4-(1-hydroxy-1-methyl-ethyl)-phenyl]-3,4,5,6-tetrahydro-2H,1′H-[1,4′]bipyridinyl-2′-one]
21 | – | 6.91 | CC(C)CCn1ccc(N2CCC(c3ccc(F)cc3F)CC2)c(Cl)c1=O [Compound 24]
22 | – | 6.58 | CC(C)CCn1ccc(N2CCC(F)(c3ccccc3)CC2)c(Cl)c1=O [Compound 23]
23 | – | 6.71 | CC(C)Cn1ccc(N2CCC(c3ccccc3)CC2)c(Cl)c1=O [Compound 19]
24 | – | 7.20 | CC(C)CCn1ccc(N2CCC(c3ccccc3)CC2)c(Cl)c1=O [Compound 18]
25 | – | 6.91 | O=c1c(Cl)c(N2CCC(OCCF)(c3ccccc3)CC2)ccn1CC1CC1 [Compound 20, 3′-Chloro-1′-cyclopropylmethyl-4-(2-fluoro-ethoxy)-4-phenyl-3,4,5,6-tetrahydro-2H,1′H-[1,4′]bipyridinyl-2′-one]
26 | – | 6.41 | O=c1c(Cl)c(N2CCC(F)(c3ccccc3)CC2)ccn1CCC1CC1 [Compound 26]
27 | – | 6.83 | CCCCn1ccc(N2CCC(c3ccc(F)cc3F)CC2)c(Cl)c1=O [Compound 25]
28 | – | 6.25 | O=c1c(Cl)c(N2CCC(CF)(c3ccccc3)CC2)ccn1CC1CC1 [Compound 21, 3′-Chloro-1′-cyclopropylmethyl-4-fluoromethyl-4-phenyl-3,4,5,6-tetrahydro-2H,1′H-[1,4′]bipyridinyl-2′-one]
